Assay results published in patent US20050255493A1, “Molecular targeting of the IGF-1 receptor” (priority 2002, published 2005).

Columns and labels:
IGF1R mRNA = experiment: Oligonucleotide scanning array hybridisation with labelled transcript; assay type: binding, human; conditions: for Rel hyb intensity: relative to the most strongly hybridising sequence on the array; for Hyb intensity: scanning array probed with labelled IGF1R mRNA
Procedure: Scanning arrays complementary to the region of the IGF1R mRNA from position 537-685 were prepared using the standard techniques described in Southern E. M. et al., Nucleic Acids Res., 1994, 22(8): 1368-1373; and Sohail, M. and Southern, E. M. “Using oligonucleotide scanning arrays to find effective antisense reagents”, Methods in Molecular Biology, vol. 170: DNA Arrays: Methods and Protocols, Ed J. B. Rampal, Humana Press Inc., Totowa, N.J.
The scanning arrays comprise sets of oligonucleotides of various lengths. A series of oligonucleotides, complementary to the target mRNA, is made by sequential coupling of nucleotides to a solid surface. The DNA synthesis reagents are applied to a confined area on the surface of the solid support using a mask. The mask is shifted along the surface after each round of coupling, resulting in a series of oligonucleotides each complementary to a region of the target sequence.
• 2. Remove 1 μL for quantitation (see below). • 3. Remove unincorporated label by Sephadex® G25 column chromatography (see Note 11). • 4. Save 1 μL of the purified transcript for quantitation (see below). • 5. Check the integrity of the transcript by denaturing polyacrylamide gel electrophoresis (10). • 6. Add 10 μL of the scintillation fluid to the samples saved in Steps 2 and 4. • 7. Mix by vortexing and count the samples in a scintillation counter for 1 min. • 8. Calculate the percent incorporation: [formula] • 9. Calculate the amount of RNA made: [formula] Hybridisation to Arrays Made on Polypropylene • 1. Place the array in the hybridisation tube, coiling it in a spiral. • 2. Dilute the radiolabelled transcript in an appropriate volume (10-20 mL depending upon the size of the array and the hybridisation tube) of hybridisation buffer. The mix should cover the array along the length of the tube. • 3. Place items 1 and 2 in the oven at desired temperature for 30 min. Also put approximately 100 mL of the hybridisation buffer in the oven: this is to be used to wash the array at the end of hybridisation. • 4. Pour the hybridisation mix into the tube containing the array and hybridise for 3-4 h. • 5. Remove the hybridisation mix. Briefly wash the array with the hybridisation buffer from Step 3, air dry, cover with cling film and expose to a storage phosphor screen for 16-20 h (see Note 12). • 6. Scan the screen on PhosphorImager or STORM and analyse the image using xvseq (see below). Hybridisation to Arrays Made on Glass • 1. Clean the non-array glass plate with acetone and ethanol to ensure it is grease-free and siliconise it by treatment with dimethyl dichlorosilane solution and place it in lidded box. Also place moist paper towel in the box. • 2. Dilute the radiolabelled transcript in an appropriate volume of the hybridisation buffer (for example, for an array of 250 mm×50 mm use 500-750 μL). • 3. Place items 1 and 2 in an incubator at desired temprature for 30 min. Also put approximately 100 mL of the hybridisation buffer in the oven: this is to be used to wash the array at the end of hybridisation. • 4. Using a micropipette, pipette the hybridisation mix in a line evenly along the length of the non-array glass plate, avoiding formation of air bubbles. • 5. Starting at one end, carefully place the scanning array (face down) on top of the hybridisation mix. The mix will spread out and form a thin film between the two plates. Incubate for 3-4 h. • 6. Separate the plates from each other and wash the array plate with hybridisation buffer to remove unbound mix. Drain the plate, air dry, cover with cling film and expose to a storage phosphor screen for 16-20 h. • 7. Scan the screen on PhosphorImager or STORM and analyse the image using xvseq (see below). Alternative Hybridisation Protocol for Glass or Polypropylene • 1. Assemble with clips the array plate (or polypropylene array pasted with PhotoMount™ on a glass plate) and the non-array plate, using rubber tubing as spacers on two sides. • 2. […]

IGF1R [1] = experiment: IGF1R expression in UC101 ovarian cancer cells treated with 18mer ASOs; assay type: cell-based, human
Procedure: The human and murine cell lines used in this study were cultured in RPMI 1640 plus 10% FCS at 37° C. in a humidified atmosphere of 5% CO2. The cultures were negative when tested for Mycoplasma infection. Cultures were passaged the day before transfection to achieve 30-50% confluence the following day. Initial transfections of ASOs used 1-2.5 μg/ml Cytofectin (Glen Research, Sterling, Va.), according to the manufacturer's instructions. Latterly Oligofectamine (Life Sciences) has been used for all ASO and RNAi transfections. The method was as described (see manufacturer's instructions and www.dharmacon.com) with minor modifications. For transfection of monolayers seeded in 6 well plates, 5 μl phosphorothioate oligonucleotide or RNA duplex at 100× final concentration were mixed with 2501 serum-free Optimem (Gibco-BRL). In a separate tube 2 μl Oligofectamine was mixed with 68 μl Optimem. After 10 min incubation at room temperature the contents of the two tubes were mixed and incubated for a further 25 min at room temperature. Monolayers were washed with 1-2 ml Optimem. To the cells were added 175 μl Optimem followed by the 325 μl complexes. […] After 48 hr incubation effects on IGF1R and IR expression were determined by immunoblotting. […]
IGF1R expression was assessed by immunoblotting as previously described (Macaulay et al 2001). […] Lysates were centrifuged for 15 minutes at 14,000 g, the protein concentration of supernatants was measured using BCA assay reagent (Pierce), and equivalent amounts of protein were separated on 7.5% SDS-PAGE gels and transferred to nitrocellulose. Target protein levels were assessed using antibodies to the β-subunit of the IGF1R or IR (Santa Cruz), phospho-Ser 473 Akt or total Akt (Cell Signalling, New England Biolabs) or β-tubulin (Sigma). Activated IGF1R was detected by immunoprecipitation for phosphotyrosine (P-Tyr-100, Cell Signaling Technology). Primary antibodies were detected with HRP-conjugated secondary antibodies (Dako), and ECL Plus (Amersham Pharmacia). […]

IGF1R [2] = experiment: IGF1R level by immunoblotting in transfected MDA-231 cells; assay type: cell-based, human; conditions: MDA-231 cells, 300 nM ASO, 48 hr, vs scrambled control
Procedure: (§1) The human and murine cell lines used in this study were cultured in RPMI 1640 plus 10% FCS at 37° C. in a humidified atmosphere of 5% CO2. The cultures were negative when tested for Mycoplasma infection. Cultures were passaged the day before transfection to achieve 30-50% confluence the following day. Initial transfections of ASOs used 1-2.5 μg/ml Cytofectin (Glen Research, Sterling, Va.), according to the manufacturer's instructions. Latterly Oligofectamine (Life Sciences) has been used for all ASO and RNAi transfections. The method was as described (see manufacturer's instructions and www.dharmacon.com) with minor modifications. For transfection of monolayers seeded in 6 well plates, 5 μl phosphorothioate oligonucleotide or RNA duplex at 100× final concentration were mixed with 2501 serum-free Optimem (Gibco-BRL). In a separate tube 2 μl Oligofectamine was mixed with 68 μl Optimem. After 10 min incubation at room temperature the contents of the two tubes were mixed and incubated for a further 25 min at room temperature. Monolayers were washed with 1-2 ml Optimem. To the cells were added 175 μl Optimem followed by the 325 μl complexes. Volumes were scaled up by factors of 2.22 or 6.05 for transfection in 60 mm or 100 mm dishes respectively. Cultures were incubated at 37° C. for 4 hr, and then 50 μl FCS and 3.5 ml RPMI plus 5% FCS were added to each well. After 48 hr incubation effects on IGF1R and IR expression were determined by immunoblotting. Some transfected cultures were serum-starved overnight, divided into two aliquots and treated with 10 nM Long R3-IGF-I (GroPep, Adelaide) or diluent for 30 min at 37° C. prior to lysis.
(§2) IGF1R expression was assessed by immunoblotting as previously described (Macaulay et al 2001). After washing in ice-cold PBS, cells were lysed in 50 mM Hepes pH 7.5, 100 mM NaCl, 10 mM EDTA, 1% Triton-X-100, 4 mM sodium pyrophosphate, 2 mM sodium orthovanadate, 10 mM sodium fluoride, 1 mM PMSF, 2 μg/ml each leupeptin and aprotinin. Lysates were centrifuged for 15 minutes at 14,000 g, the protein concentration of supernatants was measured using BCA assay reagent (Pierce), and equivalent amounts of protein were separated on 7.5% SDS-PAGE gels and transferred to nitrocellulose. Target protein levels were assessed using antibodies to the β-subunit of the IGF1R or IR (Santa Cruz), phospho-Ser 473 Akt or total Akt (Cell Signalling, New England Biolabs) or β-tubulin (Sigma). Activated IGF1R was detected by immunoprecipitation for phosphotyrosine (P-Tyr-100, Cell Signaling Technology). Primary antibodies were detected with HRP-conjugated secondary antibodies (Dako), and ECL Plus (Amersham Pharmacia).
(§3) The ASOs and RNAi duplexes were transfected into MDA-231 cells (human ER negative breast cancer) using Cytofectin or Oligofectamine, as described above. After 48 hr the cells were lysed, and IGF1R and IR levels were measured by immunoblotting. The intensity of the autoradiographic bands was quantified by densitometry, and IGF1R (or IR) levels were corrected for loading differences. The specific IGF1R or IR results are presented as % IGF1R (or IR) level of that in cells transfected with the same concentration of an appropriate control. This was a scrambled control oligonucleotide for ASOs, and an inverted RNA duplex for RNAi.

IR = IR level by immunoblotting in transfected MDA-231 cells; assay type: cell-based, human
Procedure: as §1, §2, §3

IGF1R [3] = experiment: IGF1R levels by immunoblotting in human tumour cell lines transfected with RNAi duplexes; assay type: cell-based; conditions: human ovarian (UC101) and prostate (DU145) cancer cells, 10 nM
Procedure: as §1
as §2, with “Pharmacia). […]” for “Pharmacia).”
Tumour cells were transfected with 10 nM duplexes and IGF1R levels were measured after 48 hr. After correction for loading differences IGF1R levels in cells transfected with RNAi were expressed as % of levels in cells transfected with equivalent inverted control duplex.

MDA-MB-231 cells = experiment: Clonogenic survival and post-irradiation survival (SF2) of transfected MDA-MB-231 cells; assay type: cell-based, human; conditions: MDA-MB-231, 100 nM, unirradiated
Procedure: FIG. 7 A) MDA-MB-231 cells transfected with 100 nM RNA duplexes were serum-starved overnight and treated with 50 nM IGF-I for 30 min. […] Results represent mean±sem of colony counts in triplicate dishes. Similar results were obtained in two further clonogenic assays. • C) Clonogenic survival of transfected MDA-MB-231 cells that were unirradiated or irradiated at 2Gy. The fraction surviving 2Gy irradiation (SF2) is shown as mean±sem of three independent assays.
The effect of transfection with 100 nM ASO4 or siRNA duplexes R4 and R5, equivalent to strongly and weakly hybridizing ASOs respectively, on colony forming efficiency and post-irradiation survival was also evaluated. […] This in turn illustrates the utility of hybridisation to the scanning ASO array in the selection of siRNA reagents, since relative hybridisation to the array is found to be predictive of activity in RNA interference and biological efficacy.

[4] = tested on: UC101 human ovarian cancer cells; experiment: Tumorigenicity of UC101 ovarian cancer cells transfected with siRNA (xenografts); assay type: in vivo, female athymic (nu/nu mice); conditions: UC101 cells transfected with 200 nM siRNA, nu/nu mice
Procedure: UC101 ovarian cancer cells were transfected with 200 nM siRNA, mixed with irradiated NIH-3T3 cells and inoculated into the flanks of female athymic (nu/nu mice).
Tumorigenicity testing was conducted using UC101 human ovarian cancer cells transfected with 200 nM siRNA. After 48 hr the cells were inoculated into the flanks of female athymic (nu/nu mice), using 5×10^6 tumour cells mixed with 5×10^6 irradiated NIH-3T3 cells per mouse. Tumours were measured and volumes calculated as described (Macaulay et al., Oncogene 20: 2029-40, 2001). All procedures were performed in accordance with the Home Office Scientific Procedures Act 1986, and with the approval of the Animal Ethics Committee of Cancer Research UK.

Substance	Rel hyb intensity (IGF1R mRNA)	Hyb intensity (IGF1R mRNA)	IGF1R expression, % of levels in cells treated with scrambled control (IGF1R [1])	Hybridisation to IGF1R mRNA on scanning array (IGF1R mRNA; 37° C. (and 23° C.))	IGF1R Protein Level (% control) (IGF1R [2])	IR Protein Level (% control) (IR; 300 nM ASO, 48 hr, vs scrambled control)	IGF1R downregulation, R4 compared with R5 (IGF1R [3])	Clonogenic survival (MDA-MB-231 cells)	Tumour development [4]	IR downregulation (IR; TSS ASO at 300 nM)
ASO2/18mer: phosphorothioate antisense oligonucleotide GGTCTTCTCACACATCGG, SEQ ID NO:6 (DNA, all phosphorothioate, methylation of C not given here)	1.00	56,026	39% of levels in cells treated with Scr2							
ASO6: phosphorothioate antisense oligonucleotide CTTATTCCCCACAATGTA, SEQ ID NO:17; poorly hybridising comparison (DNA, all phosphorothioate, methylation of C not given here)	0.01	560	98% of levels in cells treated with Scr6	hybridises poorly	˜150 % control	100				
R5: RNAi duplex UGAGUACAACUACCGCUGCTT / TTACUCAUGUUGAUGGCGACG, SEQ ID NO:32 (UGAGUACAACUACCGCUGCNN; second strand not cited, chemistry not fully specified)							induced IGF1R downregulation	inhibited survival	rapidly growing tumours	
TSS ASO: ASO TCCTCCGGAGCCAGACTT, SEQ ID NO:21, complementary to human IGF1R translation initiation site, identical to that described by Baserga et al. (DNA, all phosphorothioate, methylation of C not given here) [reference compound]			33% of levels in cells treated with							detectable reduction in IR levels
